Data: PubChem BioAssay (NCI)
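All cell lines were grown in 96-well plates and treated with compound for 48 hours. The concentration for full growth arrest is given as TGI.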

Columns and labels:
Assay in all cases: DTP human tumour cell line panel, 48 h
[1] = tested on: SK-MEL-2 melanoma
[2] = tested on: LOX IMVI melanoma
[3] = tested on: UO-31 renal
[4] = tested on: OVCAR-8 ovarian
[5] = tested on: RXF 393 renal
[6] = tested on: K-562 leukemia
[7] = tested on: SNB-78 CNS
[8] = tested on: NCI-H226 lung
[9] = tested on: SN12K1 renal
[10] = tested on: KM12 colon
[11] = tested on: KM20L2 colon
[12] = tested on: DLD-1 colon
[13] = tested on: SF-539 CNS
[14] = tested on: CAKI-1 renal
[15] = tested on: TK-10 renal
[16] = tested on: ACHN renal
[17] = tested on: MDA-MB-231 breast
[18] = tested on: SR leukemia
[19] = tested on: MDA-MB-435
[20] = tested on: MDA-N

Row | Structure (SMILES) | TGI [1] [µM] | TGI [2] [µM] | TGI [3] [µM] | TGI [4] [µM] | TGI [5] [µM] | TGI [6] [µM] | TGI [7] [µM] | TGI [8] [µM] | TGI [9] [µM] | TGI [10] [µM] | TGI [11] [µM] | TGI [12] [µM] | TGI [13] [µM] | TGI [14] [µM] | TGI [15] [µM] | TGI [16] [µM] | TGI [17] [µM] | TGI [18] [µM] | TGI [19] [µM] | TGI [20] [µM]
1 | COc1nc(NC2OC(CO)C(O)C(O)C2O)c(N)c(=O)[nH]1 (configuration not stated) | > 100 | > 100 | > 100 | > 100 | > 100 | > 100 | > 100 | > 31.6 | > 100 | > 100 | > 100 | > 100 | > 100 | – | – | – | – | – | – | –
2 | O=C1CCC2COc3ccc(O)c1c32 (configuration not stated) | – | > 100 | – | > 100 | > 100 | > 100 | > 100 | – | – | – | > 100 | – | > 100 | > 100 | > 100 | > 100 | – | – | – | –
3 | COC(=O)Cc1c(C2C(CC(=O)OC)c3ccccc3N2C2OC(CO)C(O)C(O)C2O)[nH]c2ccccc12 (configuration not stated) | > 100 | – | > 100 | – | – | – | – | – | – | > 100 | – | – | – | > 100 | > 100 | – | > 100 | > 100 | > 100 | > 100
